From patent US5696277A, “Antiviral prodrugs” (Hostetler; Karl Y., priority 1994, dated 1997)
Like-named read-outs stand apart in the source and are kept apart here.

What was measured:
human cytomegalovirus = experiment: CMV antiviral susceptibility assay: HCMV DNA by nucleic acid hybridization in infected MRC-5 cells (Tables I and II); format: cell-based; conditions: for fold increase in activity / times the activity of PAA: HCMV; for IC50: HCMV-infected MRC-5 cells, HCMV DNA after five days, mean ± S.D. (n)
Experimental: Phosphonoacid derivatives having structures according to formula I were tested for antiviral activity in human embryonic lung fibroblasts (MRC-5) or in human epithelioid cervical carcinoma cells (HeLa) expressing the CD4 receptor (HT4-6C). HCMV (strain AD-169) and HSV-1 (wild type) were used to infect MRC-5 cells and HCMV or HSV-specific DNA was measured by DNA-probe methods (HybriwixTM, Diagnostic Hybrids, Inc., Athens, Ohio) according to the manufacturer's instructions. HIV replication was accessed in HIV-1 infected HT4-6C cells using a plaque reduction assay ([…]. et al. (1990) Antimicrobial Agents Chemother. 34:436). Subconfluent MRC-5 cells in 24-well culture dishes were pretreated for 24 hours with various concentrations of drug in MEM medium containing 2% FBS and antibiotics. The media was removed and virus added at a dilution that will result in a 3-4+ cytopathic effect (CPE) in the no-drug wells in five days. This was absorbed for 1 hour at 37° C., aspirated and replaced with the drug dilutions. After five days of incubation HCMV DNA was quantified in triplicate by nucleic acid hybridization using a CMV Antiviral Susceptibility Test Kit from Diagnostic Hybrids, Inc. (Athens, Ohio). The media was removed and cells lysed according to the manufacturer's instructions. After absorption of the lysate, the HybriwixTM filters were hybridized overnight at 60° C. The HybriwixTM were washed for 30 minutes at 73° C. and counted in a gamma counter. The results are expressed as a percentage of the untreated HCMV-infected control cells.

MRC-5 cells = experiment: in vitro; format: cell-based, human
Experimental: (§1) The cytotoxicity of B-PFA and B-PAA in subconfluent MRC-5 cells was assessed by trypan blue exclusion.

in vitro = format: cell-based, human; conditions: human, mrc-5 cells
Experimental: as §1

[1] = system: human herpes simplex virus 1; experiment: HSV antiviral susceptibility assay: HSV DNA by nucleic acid hybridization in infected MRC-5 cells (Table III); format: cell-based; conditions: for times more active than PFA / fold increase in activity: HSV-1; for fold increase in activity: versus PFA
Experimental: (§2) Phosphonoacid derivatives having structures according to formula I were tested for antiviral activity in human embryonic lung fibroblasts (MRC-5) or in human epithelioid cervical carcinoma cells (HeLa) expressing the CD4 receptor (HT4-6C). HCMV (strain AD-169) and HSV-1 (wild type) were used to infect MRC-5 cells and HCMV or HSV-specific DNA was measured by DNA-probe methods (Hybriwix™, Diagnostic Hybrids, Inc., Athens, Ohio) according to the manufacturer's instructions. HIV replication was accessed in HIV-1 infected HT4-6C cells using a plaque reduction assay (Larder, B. et al. (1990) Antimicrobial Agents Chemother. 34:436).
Subconfluent MRC-5 cells in 24-well culture dishes were inoculated by removing the media and adding HSV-1 virus at a dilution that will result in a 3-4+ CPE in the no-drug well in 20-24 hours. This was absorbed for 1 hour at 37° C., aspirated and replaced with various concentrations of drugs in MEM medium containing 2% FBS and antibiotics. After approximately 24 hours of incubation, HSV DNA was quantified in triplicate by nucleic acid hybridization using a HSV Antiviral Susceptibility Test Kit from Diagnostic Hybrids, Inc. (Athens, Ohio). The media was removed and cells lysed according to the manufacturer's instructions. After absorption of the lysate, the Hybriwix™ filters were hybridized overnight at […] The Hybriwix™ were washed for 30 minutes at 73° C. and counted in a gamma counter. The results are expressed as a percentage of the untreated HSV-infected control cells.

[2] = system: human immunodeficiency virus-1; experiment: HIV-1 plaque reduction assay in HT4-6C cells (Table IV); format: cell-based, HIV-1 in CD4-expressing human HeLa cells (HT4-6C); conditions: for fold increase in activity: HIV-1, versus PFA; for IC50: Human immunodeficiency virus 1, 72 h, HIV-1 plaque reduction in HT4-6C cells, 3 days, mean ± S.D. (n)
Experimental: as §2
HT4-6C cells and plaque reduction assay, CD4-expressing HeLa cells, HT4-6C cells (Chesebro, B. and K. Wehrly (1988) J. Virology 62:3779-3788), were obtained from Bruce Chesebro, Hamilton, Mont. The effect of antiviral compounds on HIV replication was measured by a plaque reduction assay. Briefly, monolayers of HT4-6C cells were infected with 100 to 300 PFU of virus per well in 24-well microdilution plates. Various concentrations of drug were added to the culture medium, Dulbecco's Modified Eagle Medium containing 5% fetal bovine serum and antibiotics, as noted above. After 3 days at 37° C., the monolayers were fixed with 10% formaldehyde solution in phosphate-buffered saline and stained with 0.25% crystal violet to visualize virus plaques (Larder, B. et al. (1989) Science 243:1731-1734). Antiviral activity was assessed as the percentage of control plaques measured in drug-treated samples.

[3] = system: reverse transcriptase of human immunodeficiency virus (HIV); conditions: cited from earlier work
[4] = system: DNA polymerase of many viruses, including human cytomegalovirus (HCMV), herpes simplex virus (HSV); conditions: HSV and many other viruses; cited from earlier work
[5] = in vivo; cited from earlier work
[6] = phosphonoacetate series, versus PAA
[7] = Human betaherpesvirus 5, MRC5, 120 h
[8] = Human alphaherpesvirus 1, MRC5, HSV-1-infected MRC-5 cells, approximately 24 hours, mean ± S.D. (n), read-out: IC50
[9] = phosphonoformate series, versus PFA

Compound: CCCCCCCCCCCCCCCCCCOC[C@@H](O)COP(=O)(O)CC(=O)O [B--PAA, 1O-octadecyl-snglycero-3-phosphonoacetic acid]
- fold increase in activity (human cytomegalovirus; [6]): 100 fold
- IC50 (human cytomegalovirus; [7]): 0.22 ± 0.08 µM
- selectivity index (MRC-5 cells): ≥ 300
- CC50 (in vitro): 32 to 100 µM

Compound: CCCCCCCCCCCCCCCCCCOC[C@@H](O)COP(=O)(O)CC(=O)OCC [B--PAA--OEt, 1O-octadecyl-snglycero-3-phosphonoacetate ethyl ester]
- fold increase in activity (human cytomegalovirus; [6]): 6.1 fold
- IC50 (human cytomegalovirus; [7]): 3.6 ± 1.5 µM

Compound: CCCCCCCCCCCCCCCCCCOC[C@@H](O)COP(=O)(O)C(=O)O [B--PFA, 1O-octadecyl-snglycero-3-phosphonoformic acid]
- times more active than PFA [1]: 43 times
- fold increase in activity [1]: 43 fold
- IC50 [1, 8]: 1.1 ± 1.1 µM
- fold increase in activity (human cytomegalovirus; [9]): 107 fold
- IC50 (human cytomegalovirus; [7]): 0.43 ± 0.27 µM
- selectivity index (MRC-5 cells): ≥ 300
- CC50 (in vitro): > 1000 µM
- fold increase in activity [2]: 37 fold
- IC50 [2]: 3.6 ± 1.51 µM

Compound: CCCCCCCCCCCCCCCCCCOC[C@@H](O)COP(=O)(O)C(=O)OCC [B--PFA--OEt, 1O-octadecyl-snglycero-3-phosphonoformate ethyl ester]
- fold increase in activity (human cytomegalovirus; [9]): 38 fold
- IC50 (human cytomegalovirus; [7]): 1.2 ± 0.49 µM

Compound: CCCCCCCCCCCCCCCCCCOC[C@H](COC(=O)CP(=O)(O)O)OCc1ccccc1 [BB--(C)--PAA, 1O-octadecyl-2-O-benzyl-snglycero-3-carboxymethylenephosphonate]
- fold increase in activity (human cytomegalovirus; [6]): 16 fold
- IC50 (human cytomegalovirus; [7]): 1.4 ± 0.9 µM

Compound: CCCCCCCCCCCCCCCCCCOC[C@H](COP(=O)(O)CC(=O)O)OCc1ccccc1 [BB--PAA, 1O-octadecyl-2-O-benzyl-snglycero-3-phosphonoacetic acid]
- fold increase in activity (human cytomegalovirus; [6]): 24 fold
- IC50 (human cytomegalovirus; [7]): 0.92 ± 0.8 µM

Compound: CCCCCCCCCCCCCCCCCCOC[C@H](COP(=O)(O)CC(=O)OCC)OCc1ccccc1 [BB--PAA--OEt, 1O-octadecyl-2-O-benzyl-snglycero-3-phosphonoacetate ethyl ester]
- fold increase in activity (human cytomegalovirus; [6]): 3.1 fold
- IC50 (human cytomegalovirus; [7]): 7.2 ± 1 µM

Compound: CCCCCCCCCCCCCCCCCCOC[C@H](COP(=O)(O)C(=O)O)OCc1ccccc1 [BB--PFA, 1O-octadecyl-2-O-benzyl-snglycero-3-phosphonoformic acid]
- times more active than PFA [1]: 34 times
- fold increase in activity [1]: 34 fold
- IC50 [1, 8]: 1.4 ± 0.4 µM
- fold increase in activity (human cytomegalovirus; [9]): 72 fold
- IC50 (human cytomegalovirus; [7]): 0.64 ± 0.65 µM
- fold increase in activity [2]: 9.0 fold
- fold increase in activity ([2]; listed as BB-PFA): 9 fold
- IC50 [2]: 14.8 ± 7.3 µM

Compound: CCCCCCCCCCCCCCCCCCOC[C@H](COP(=O)(O)C(=O)OCC)OCc1ccccc1 [BB--PFA--OEt, 1O-octadecyl-2-O-benzyl-snglycero-3-phosphonoformate ethyl ester]
- fold increase in activity (human cytomegalovirus; [9]): 16 fold
- IC50 (human cytomegalovirus; [7]): 2.9 ± 0.97 µM

Compound: CCCCCCCCCCCCCC(=O)OC[C@H](COP(=O)(O)CC(=O)O)OC(=O)CCCCCCCCCCCCC [DMG--PAA, 1,2dimyristoyl-snglycero-3-phosphonoacetate]
- times the activity of PAA (human cytomegalovirus): 1.2 times
- fold increase in activity (human cytomegalovirus; [6]): 1.2 fold
- IC50 (human cytomegalovirus; [7]): 19 ± 6.5 µM

Compound: CCCCCCCCCCCCCC(=O)OC[C@H](COP(=O)(O)CC(=O)OCC)OC(=O)CCCCCCCCCCCCC [DMG--PAA--OEt, 1,2dimyristoyl-snglycero-3-phosphonoacetate ethyl ester]
- fold increase in activity (human cytomegalovirus; [6]): 0.2 fold
- IC50 (human cytomegalovirus; [7]): 108 ± 42 µM

Compound: CCCCCCCCCCCCCC(=O)OC[C@H](COP(=O)(O)C(=O)O)OC(=O)CCCCCCCCCCCCC [DMG--PFA, 1,2dimyristoyl-snglycero-3-phosphonoformate]
- fold increase in activity (human cytomegalovirus; [9]): 0.33 fold
- IC50 (human cytomegalovirus; [7]): 125 ± 43 µM

Compound: CCCCCCCCCCCCCC(=O)OC[C@H](COP(=O)(O)C(=O)OCC)OC(=O)CCCCCCCCCCCCC [DMG--PFA--OEt, 1,2dimyristoyl-snglycero-3-phosphonoformate ethyl ester]
- fold increase in activity (human cytomegalovirus; [9]): 1.53 fold
- IC50 (human cytomegalovirus; [7]): 30 ± 18 µM

Compound: CCCCCCCCCCCCCC(=O)OC[C@H](COP(=O)(O)OP(=O)(O)CC(=O)O)OC(=O)CCCCCCCCCCCCC [DMP--PAA, 1,2dimyristoyl-snglycero-3-phospho-phosphonoacetate]
- times the activity of PAA (human cytomegalovirus): 0.24 times
- IC50 (human cytomegalovirus): 93 ± 92 µM
- fold increase in activity (human cytomegalovirus; [6]): 0.2 fold

Compound: CCCCCCCCCCCCCC(=O)OC[C@H](COP(=O)(O)OP(=O)(O)CC(=O)OCC)OC(=O)CCCCCCCCCCCCC [DMP--PAA--OEt, 1,2dimyristoyl-snglycero-3-phospho-phosphonoacetate ethyl ester]
- IC50 (human cytomegalovirus): 130 ± 28 µM
- fold increase in activity (human cytomegalovirus; [6]): 0.2 fold

Compound: CCCCCCCCCCCCCCCC(=O)OC[C@H](COP(=O)(O)OP(=O)(O)CC(=O)O)OC(=O)CCCCCCCCCCCCCCC [DPP--PAA, 1,2dipalmitoyl-snglycero-3-phospho-phosphonoacetate]
- times the activity of PAA (human cytomegalovirus): 0.28 times
- IC50 (human cytomegalovirus): 80 ± 42 µM
- fold increase in activity (human cytomegalovirus; [6]): 0.3 fold

Compound: CCCCCCCCCCCCCCCCCCOC[C@H](COP(=O)(O)CC(=O)O)OC [MB--PAA, 1O-octadecyl-2-O-methyl-snglycero-3-phosphonoacetic acid]
- fold increase in activity (human cytomegalovirus; [6]): 36 fold
- IC50 (human cytomegalovirus; [7]): 0.61 ± 0.76 µM

Compound: CCCCCCCCCCCCCCCCCCOC[C@H](COP(=O)(O)CC(=O)OCC)OC [MB--PAA--OEt, 1-O-octadecyl-2-O-methyl-sn-glycero-3-phosphonoacetic acid ethyl ester]
- fold increase in activity (human cytomegalovirus; [6]): 3.3 fold
- IC50 (human cytomegalovirus; [7]): 6.7 ± 1.9 µM

Compound: CCCCCCCCCCCCCCCCCCOC[C@H](COP(=O)(O)C(=O)O)OC [MB--PFA, 1O-octadecyl-2-O-methyl-snglycero-3-phosphonoformic acid]
- times more active than PFA [1]: 72 times
- fold increase in activity [1]: 72 fold
- IC50 [1, 8]: 0.65 ± 0.21 µM
- fold increase in activity (human cytomegalovirus; [9]): 72 fold
- fold increase in activity (human cytomegalovirus; phosphonoformate series, versus PFA, listed as MB-PFA): 38 fold
- IC50 (human cytomegalovirus; [7]): 0.64 ± 0.14 µM
- activity compared with B-PFA ([2]; HIV-1, HT4-6C cells, p = 0.0373 versus B-PFA): more active than B-PFA to a statistically significant degree
- fold increase in activity [2]: 104 fold
- IC50 [2]: 1.28 ± 0.73 µM

Compound: O=C(O)CP(=O)(O)O [PAA, phosphonoacetic acid]
- selective inhibition of HIV reverse transcriptase [3]: selectively inhibit
- selective inhibition of viral DNA polymerase [4]: selectively inhibit the DNA polymerase of many viruses
- IC50 (human cytomegalovirus; [7]): 22 ± 7 µM
- toxicity in humans [5]: too toxic for use in humans

Compound: O=C(O)P(=O)(O)O [PFA, phosphonoformic acid, reference compound]
- IC50 ([1]; Human alphaherpesvirus 1, MRC5, 24 h): 47 ± 20 µM
- selective inhibition of HIV reverse transcriptase [3]: selectively inhibit
- selective inhibition of viral DNA polymerase [4]: selectively inhibit the DNA polymerase of many viruses
- IC50 (human cytomegalovirus; [7]): 46 ± 19 µM
- toxicity in humans [5]: substantial toxicity to the kidney and other organs
- IC50 [2]: 133 ± 54 µM
